In patent US11311543B2, “Compositions and methods for inhibiting PTPN22” (YALE UNIVERSITY, priority 2016, dated 2022):

Assays:
[1] = test system: B cells isolated from humanized mice; assay: Calcium flux after BCR triggering in B cells isolated from humanized mice (flow cytometry); format: in vivo, humanized NSG mouse; details: anti-IgM F(ab′)2 25 μg/mL
Procedure: FIG. 40A depicts the phosphorylation of SHIP1, Lyn and ERK1/2 in total cell lysates of Ramos B cells treated or not with the PTPN22 inhibitor LTV-1 (5 μg/mL) for the indicated times. The cells were subjected to immunoblot analysis of P-LYN P-SHIP1, P-ERK1/2, and β-ACTIN. FIG. 40B depicts flow cytometry analysis of calcium flux of Ramos B cells treated or not with the PTPN22 inhibitor LTV-1 (5 μg/mL) for the indicated times followed by stimulation with anti-IgM F(ab′)2 at the indicated concentrations. FIG. 40C depicts flow cytometry analysis of calcium flux of splenocyte cells treated or not with LTV-1 (0.75 mg) twice daily for 7 days and stimulated with anti-IgM F(ab′)2 (25 μg/mL). FIG. 40D depicts flow cytometry analysis of calcium flux of splenocyte expressing PTPN22 shRNA and stimulated with anti-IgM F(ab′)2 (25 μg/mL).
However, downstream ERK phosphorylation was not affected by PTPN22 inhibition (FIG. 40A). Since PTPN22 inhibition enhanced TCR signaling in Jurkat cell line, it was investigated if PTPN22 blockade may also increase BCR signaling and calcium flux induced by BCR triggering was measured in RAMOS cells in the presence or not of LTV-1. Calcium flux was increased by PTPN22 inhibition, especially at lower concentration of BCR triggering agent (FIG. 40B). […]

[2] = test system: new emigrant/transitional B cells; assay: Frequencies of autoreactive new emigrant/transitional B cells (central B cell tolerance) in humanized NSG mice engrafted with PTPN22 C/T or T/T HSCs; format: in vivo, NSG mice engrafted with human HSCs
Procedure: FIG. 7, comprising FIG. 7A through FIG. 7C depicts results of experiments showing inhibition of PTPN22 enzymatic activity resets central B cell tolerance. FIG. 7A depicts a schematic diagram depicting the PTPN22 inhibitor treatment strategy. NSG mice generated with CD34+ HSCs carrying PTPN22 T allele(s) were injected twice daily with 0.75 mg or 0.15 mg of PTPN22 inhibitor for one week. FIG. 7B depicts the frequencies of polyreactive new emigrant B cells from NSG mice carrying PTPN22 T allele(s) and treated with the PTPN22 inhibitor were determined and compared to those of non-treated NSG mice. […] For each B-cell fraction, the frequency of reactive (filled area) and non-reactive (open area) clones is summarized in pie charts with the total number of clones tested indicated in the center. In summarized reactivity panels on the right, each dot represents an untreated mouse and full and half-filled diamonds mice treated with either 0.75 or 0.15 mg of LTV-1 PTPN22 inhibitor, respectively. Averages are shown with a bar. FIG. 7C depicts the frequencies of HEp-2 reactive new emigrant B cells from NSG mice carrying PTPN22 T allele(s) and treated with the PTPN22 inhibitor were determined and compared to those of non-treated NSG mice. […] For each B-cell fraction, the frequency of reactive (filled area) and non-reactive (open area) clones is summarized in pie charts with the total number of clones tested indicated in the center. In summarized reactivity panels on the right, each dot represents an untreated mouse and full and half-filled diamonds mice treated with either 0.75 or 0.15 mg of LTV-1 PTPN22 inhibitor, respectively. Averages are shown with a bar.
Human CD34^+ cells were purified from fetal liver samples by density gradient centrifugation followed by positive immunomagnetic selection with anti-human CD34 microbeads (Miltenyi). Newborn NSG mice (within first 3 days of life) were sublethally irradiated (X-ray irradiation with X-RAD 320 irradiator at 180 cGy) and 100,000-150,000 CD34^+ cells in 20 μL of PBS were injected into the liver with a 22-gauge needle (Hamilton Company). Mice were used for experiments 10-12 weeks after transplantation. NSG mice treated with the PTPN22 inhibitor were injected twice daily i.p. with 0.75 mg or 0.15 mg of PTPN22 inhibitor for a week.
The pTRIP-Ubi-GFP lentiviral vector has been used for overexpression of PTPN22 variants and short hairpin RNA (shRNA) delivery. Vector constructions have been described previously (Cantaert et al., 2015, Immunity 43:884-95; Ruer-Laventie et al., 2015, Immun Inflamm Dis 3:265-79). The following sequence are used for human PTPN22 targeting: shRNA1 5′-[…]-3′ (SEQ ID NO: 1), shRNA2 5′-CTGTTGCCAACATCCTCTA-3′(SEQ ID NO: 3), or shRNA3 5′-AAGAATCCACCTGACTTCC-3′(SEQ ID NO: 2). Lentiviral particles were produced by transient transfection of 293T cells, as previously described (Schickel et al., 2012, EMBO Mol Med 4:1261-75). Viruses were then used to transduce CD34^+ HSCs in the presence of protamine sulfate (Sigma).
B cells were enriched from splenocytes using magnetic separation with CD19 microbeads (Miltenyi Biotech) and stained with CD19-Pacific Blue, CD10-PE-Cy7, CD21-APC and IgM-biotin (all from Biolegend) prior to purification. Single CD19^+CD10^+CD21^lowGFP^− or GFP^+ new emigrant B cells were sorted on a FACSAria (BD Biosciences) into 96-well PCR plates and immediately frozen on dry ice. […]

[3] = GFP+ shRNA+ PTPN22 C/T or T/T new emigrant/transitional B cells vs GFP- counterparts

| Compound | calcium flux after BCR triggering in GFP+ shRNA-expressing B cells ([1]; GFP+ vs GFP- B cells from humanized NSG mouse) | production of HEp-2 reactive clones [2, 3] | production of polyreactive clones [2, 3] | calcium flux in B cells isolated from treated humanized mice ([1]; LTV-1 0.75 mg twice daily for 7 days, vs non-treated) | frequencies of HEp-2 reactive new emigrant/transitional B cells ([2]; PTPN22 C/T or T/T engrafted NSG mice, 0.75 mg LTV-1 i.p. twice daily for a week) | frequencies of polyreactive new emigrant/transitional B cells ([2]; PTPN22 C/T or T/T engrafted NSG mice, 0.75 mg LTV-1 i.p. twice daily for a week, vs non-treated) | anti-nuclear clone frequencies ([2]; PTPN22 C/T or T/T engrafted NSG mice, LTV-1 twice daily for a week) |
| --- | --- | --- | --- | --- | --- | --- | --- |
| shRNA #1: shRNA targeting human PTPN22, 5′-CTAGTGCTCTTGGTGTATATT-3′, delivered by GFP-tagged lentivirus | increased calcium flux | significantly reduced | significantly reduced | – | – | – | – |
| Cc1ccccc1N1C(=O)/C(=C/c2ccc(OCc3cccc(C(=O)O)c3)cc2)C(=O)NC1=S [LTV-1] | – | – | – | enhanced | normalized | significantly reduced | remained very low |
